Nine compounds from patent publication US20240101544A1, “INHIBITORS OF QPCTL AND QPCT” (priority 2022, published 2024) can be followed below.

The target of assay [1] is T1, QPCTL (Homo sapiens (Human), UniProt Q9NXS2). Description: Inhibition of Cellular QPCTL Activity - FACS flow cytometry, CC2C6 anti-CD47 staining of Ramos cells. The following applies: Ramos human Burkitts Lymphoma cells, 72-96 hours, % CC2C6-positive cells. It is filed as cell-based. The procedure:
Inhibition of Cellular QPCTL Activity—Fluorescence-Activated Cell Sorting (FACS) Flow Cytometry
The cells were incubated for 72-96 hours at 37° C. and 5% CO2. At the end of incubation period, cells were transferred to tubes and spun down at 1200 rpm for 5 minutes. […] After antibody staining, the cells were washed with FACS buffer then stained with SYTOX™ Blue dead cell stain at a dilution of 1:1000. Cells were analyzed on a BD FACS Melody and a positive staining gate on live cells was set using the 0.1% DMSO controls. […] Flow cytometry data were analyzed by FlowJo software and concentration-response-curves and IC50 values were generated using Collaborative Drug Discovery software.
Target sequence in this assay (Q9NXS2 whole entry): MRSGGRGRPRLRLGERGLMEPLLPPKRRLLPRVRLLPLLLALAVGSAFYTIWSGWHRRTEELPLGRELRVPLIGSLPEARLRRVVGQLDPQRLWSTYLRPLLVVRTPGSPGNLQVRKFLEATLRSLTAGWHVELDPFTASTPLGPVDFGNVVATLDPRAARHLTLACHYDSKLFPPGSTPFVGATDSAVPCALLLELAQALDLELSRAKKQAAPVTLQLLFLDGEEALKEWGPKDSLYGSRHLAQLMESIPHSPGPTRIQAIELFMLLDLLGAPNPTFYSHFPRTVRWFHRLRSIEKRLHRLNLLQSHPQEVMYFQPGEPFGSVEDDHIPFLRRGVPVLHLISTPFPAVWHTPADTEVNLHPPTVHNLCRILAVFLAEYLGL
(Flow cytometry measures light scatter and fluorescence of single cells or particles in a stream.)

The target of assay [2] is T1, QPCTL. As to the kind of experiment: QPCTL Enzymatic Activity Assay (coupled-enzyme fluorescent assay, H-Gln-AMC substrate). The assay is classed as biochemical. Conditions: recombinant truncated human QPCTL 10-12 nM, 10 μM H-Gln-AMC; read-out: QPCTL Inhibition IC50.
Target sequence in this assay (Q9NXS2 53-382): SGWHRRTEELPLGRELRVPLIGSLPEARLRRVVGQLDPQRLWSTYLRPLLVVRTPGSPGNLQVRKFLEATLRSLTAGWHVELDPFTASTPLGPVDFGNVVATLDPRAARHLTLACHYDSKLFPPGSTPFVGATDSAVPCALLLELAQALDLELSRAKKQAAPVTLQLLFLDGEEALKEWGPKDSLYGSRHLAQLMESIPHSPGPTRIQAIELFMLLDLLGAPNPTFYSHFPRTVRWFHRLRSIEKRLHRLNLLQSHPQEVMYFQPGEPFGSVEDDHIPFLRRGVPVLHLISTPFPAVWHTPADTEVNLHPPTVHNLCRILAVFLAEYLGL
A further assay addresses QPCT (rhQPCT) (Homo sapiens (Human), UniProt Q16769). Description: QPCT Enzymatic Activity Assay (coupled-enzyme fluorescent assay, H-Gln-AMC substrate). It is filed as biochemical. Conditions: rhQPCT 10-12 nM, 10 μM H-Gln-AMC; read-out: QPCT Inhibition IC50. Summed up: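 Coupled assay: recombinant human QPCT converts H-Gln-AMC (10 μM final) to pyroglutamyl-AMC, 60 min at 37 °C, stopped by boiling; PGPEP-1 then releases AMC.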

The target in assay [3] is T1, QPCTL. Description: Inhibition of Cellular QPCTL Activity - Imaging Assay, CC2C6 anti-CD47 staining of DLD-1 cells. The assay is classed as cell-based. The following applies: 72 hours, CC2C6 anti-CD47 high-content imaging. The procedure:
Inhibition of Cellular QPCTL Activity—Imaging Assay
The cells were incubated for 72 hours at 37° C. and 5% CO2. […] After primary antibody staining, the cells were fixed with 4% paraformaldehyde in the incubation buffer for 15 minutes at room temperature. […] Cells were analyzed on a ImageXpress Pico Automated Cell Imaging System (Molecular Devices) using 10× objective (3×3 fields).
Target sequence in this assay (Q9NXS2 whole entry): as the sequence (Q9NXS2 whole entry) above

In general, IC50 refers to the point on the concentration scale where inhibition reaches its midpoint.

Sequence of QPCT (rhQPCT) (Q16769 29-361): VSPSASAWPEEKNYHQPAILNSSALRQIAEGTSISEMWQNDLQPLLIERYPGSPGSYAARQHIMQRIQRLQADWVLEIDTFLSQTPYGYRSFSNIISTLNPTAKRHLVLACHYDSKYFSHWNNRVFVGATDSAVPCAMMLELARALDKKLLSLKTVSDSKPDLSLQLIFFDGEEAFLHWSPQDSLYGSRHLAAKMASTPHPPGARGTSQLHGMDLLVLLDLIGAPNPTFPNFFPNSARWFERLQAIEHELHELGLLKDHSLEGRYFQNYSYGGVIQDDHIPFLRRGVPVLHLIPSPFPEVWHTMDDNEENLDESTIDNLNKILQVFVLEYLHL

As for `COc1ccncc1-c1ccc(OC)c(C#N)c1N1CCC(c2nncn2C)CC1` [Example 25, 6-methoxy-3-(4-methoxypyridin-3-yl)-2-[4-(4-methyl-4H-1,2,4-triazol-3-yl)piperidin-1-yl]benzonitrile], the half-maximal inhibitory concentration (IC50) against QPCTL [1] is 100 to 1000 nM; on QPCTL [2] it was under 100 nM; at QPCT (rhQPCT), under 100 nM; against QPCTL [3], 1000 to 10000 nM.
`Cn1cnnc1C1CCN(c2c(C#N)cccc2-c2cnc(=O)n(C)c2)CC1` [Example 34, 3-(1-methyl-2-oxo-1,2-dihydropyrimidin-5-yl)-2-[4-(4-methyl-4H-1,2,4-triazol-3-yl)piperidin-1-yl]benzonitrile]: the IC50 is 1000 to 10000 nM on QPCTL [1], under 100 nM at QPCTL [2], under 100 nM on QPCT (rhQPCT) and 100 to 1000 nM on QPCTL [3].
`COc1ccc(-c2ccc(F)nc2)c(N2CCC(c3nncn3C)CC2)c1C#N` [Example 24, 3-(6-fluoropyridin-3-yl)-6-methoxy-2-[4-(4-methyl-4H-1,2,4-triazol-3-yl)piperidin-1-yl]benzonitrile]: the half-inhibitory concentration (IC50) against QPCTL [1], on QPCTL [2], on QPCT (rhQPCT) and against QPCTL [3] was under 100 nM each time.
As to `Cn1cc(-c2ccc(-c3ccc(F)nc3)c(N3CCC(c4nncn4C)CC3)c2C#N)cn1` [Example 35, 3-(6-fluoropyridin-3-yl)-6-(1-methyl-1H-pyrazol-4-yl)-2-[4-(4-methyl-4H-1,2,4-triazol-3-yl)piperidin-1-yl]benzonitrile], the IC50 against QPCTL [1], at QPCTL [2], on QPCT (rhQPCT) and on QPCTL [3] was under 100 nM each time.
For the compound `Cn1cnnc1C1CCN(c2c(C#N)cccc2-c2cnccc2OCCO)CC1` [Example 9, 3-[4-(2-hydroxyethoxy)pyridin-3-yl]-2-[4-(4-methyl-4H-1,2,4-triazol-3-yl)piperidin-1-yl]benzonitrile], the half-inhibitory concentration (IC50) is 1000 to 10000 nM against QPCTL [1], under 100 nM at QPCTL [2] and under 100 nM on QPCT (rhQPCT).
Consider `Cn1cnnc1C1CCN(c2c(C#N)ccc(F)c2-c2ccc(F)nc2)CC1` [Example 38, 4-fluoro-3-(6-fluoropyridin-3-yl)-2-[4-(4-methyl-4H-1,2,4-triazol-3-yl)piperidin-1-yl]benzonitrile], for which the 50% inhibitory concentration (IC50) on QPCTL [1], on QPCTL [2], on QPCT (rhQPCT) and at QPCTL [3] was under 100 nM in each case.
On to `Cn1cc(-c2ccc(-c3ccnnc3)c(N3CCC(c4nncn4C)CC3)c2C#N)cn1` [Example 36, 6-(1-methyl-1H-pyrazol-4-yl)-2-[4-(4-methyl-4H-1,2,4-triazol-3-yl)piperidin-1-yl]-3-(pyridazin-4-yl)benzonitrile], for which the IC50 against QPCTL [1], on QPCTL [2] and at QPCT (rhQPCT) was under 100 nM throughout.
For `Cn1cnnc1C1CCN(c2c(C#N)ccc(F)c2-c2ccnnc2)CC1` [Example 39, 4-fluoro-2-[4-(4-methyl-4H-1,2,4-triazol-3-yl)piperidin-1-yl]-3-(pyridazin-4-yl)benzonitrile], the figures for the concentration for half-maximal inhibition (IC50) at QPCTL [1], at QPCTL [2] and at QPCT (rhQPCT) were 100 to 1000 nM, under 100 nM and under 100 nM, respectively.
`COc1ccncc1-c1ccc(Cl)c(C#N)c1N1CCC(c2nncn2C)CC1` [Example 27, 6-chloro-3-(4-methoxypyridin-3-yl)-2-[4-(4-methyl-4H-1,2,4-triazol-3-yl)piperidin-1-yl]benzonitrile]: the concentration for half-maximal inhibition (IC50) against QPCTL [1] was 100 to 1000 nM; on QPCTL [2] it was under 100 nM; on QPCT (rhQPCT) it was under 100 nM.
